{
  "source": "patent US12349706B2",
  "about": "“Compositions and methods related to excipients and cannabinoid formulations” (Natural Extraction Systems, LLC, priority 2020, dated 2025)",
  "assay_type_in_all_cases": "in vivo",
  "key": {"Sabra mice [1]": {"system": "Sabra mice", "assay": "Zymosan-induced paw pain, Von Frey hair aesthesiometer", "conditions": "zymosan in left hind paw, 300 milligrams formulation (cannabinoid in propylene glycol, xylitol solid phase) in 15 milliliters water, oral gavage", "experimental": "(§1) The activity of formulations set forth in this disclosure is assayed in Sabra mice. 300 milligrams of a formulation is combined with 15 milliliters of water and administered by oral gavage. Each formulation comprises a liquid phase that contains propylene glycol and a solid phase that contains xylitol. The liquid phase contains a cannabinoid selected from CBD, THC, Δ8-THC, CBG, CBDV, THCV, Δ8-THCV, CBGV, CBC, CBN, tetrahydrocannabiphorol, perrottetinene, nabilone, parahexyl, HUM-217, and HU-331, which is dissolved in the propylene glycol, and controls lack any cannabinoid.\n(§2) Zymosan is injected into the left hind paws of each mouse to induce pain, inflammation, and tumor necrosis factor (“TNF”) signaling. Inflammatory paw swelling is measured with a caliper. Pain is measured with a Von Frey hair aesthesiometer. Plasma TNF is measured […]."}, "[2]": {"system": "tumor necrosis factor (“TNF”) signaling", "assay": "Plasma TNF after zymosan injection, measured by HPLC", "conditions": "Sabra mice, zymosan in left hind paw, 300 milligrams formulation (cannabinoid in propylene glycol, xylitol solid phase) in 15 milliliters water, oral gavage", "experimental": "as §1, §2"}, "Sabra mice [3]": {"system": "Sabra mice", "assay": "Zymosan-induced inflammatory paw swelling, measured with a caliper", "conditions": "zymosan in left hind paw, paw swelling by caliper, 300 milligrams formulation (cannabinoid in propylene glycol, xylitol solid phase) in 15 milliliters water, oral gavage", "experimental": "as §1, §2"}},
  "data": [
    {"smiles": "CCCCCc1cc(O)c2c(c1)OC(C)(CCC=C(C)C)C=C2", "note": "(stereo not drawn) [CBC]", "values": [
      {"measurement": "reduction in pain relative to controls", "setting": "Sabra mice [1]", "result": "no detectable effect"},
      {"measurement": "reduction in TNF signaling relative to controls", "setting": "[2]", "result": "no detectable effect"},
      {"measurement": "reduction in inflammation relative to controls", "setting": "Sabra mice [3]", "result": "no detectable effect"}
    ]},
    {"smiles": "C=C(C)[C@@H]1CCC(C)=C[C@H]1c1c(O)cc(CCC)cc1O", "note": "[CBDV]", "values": [
      {"measurement": "reduction in pain relative to controls", "setting": "Sabra mice [1]", "result": "robust reduction"},
      {"measurement": "reduction in TNF signaling relative to controls", "setting": "[2]", "result": "robust reduction"},
      {"measurement": "reduction in inflammation relative to controls", "setting": "Sabra mice [3]", "result": "robust reduction"}
    ]},
    {"smiles": "C=C(C)[C@@H]1CCC(C)=C[C@H]1c1c(O)cc(CCCCC)cc1O", "note": "[CBD]", "values": [
      {"measurement": "reduction in pain relative to controls", "setting": "Sabra mice [1]", "result": "robust reduction"},
      {"measurement": "reduction in TNF signaling relative to controls", "setting": "[2]", "result": "robust reduction"},
      {"measurement": "reduction in inflammation relative to controls", "setting": "Sabra mice [3]", "result": "robust reduction"}
    ]},
    {"smiles": "CCCCCc1cc(O)c(C/C=C(\\C)CCC=C(C)C)c(O)c1", "note": "[CBG]", "values": [
      {"measurement": "reduction in pain relative to controls", "setting": "Sabra mice [1]", "result": "modest reduction"},
      {"measurement": "reduction in TNF signaling relative to controls", "setting": "[2]", "result": "modest reduction"},
      {"measurement": "reduction in inflammation relative to controls", "setting": "Sabra mice [3]", "result": "modest reduction"}
    ]},
    {"smiles": "CCCCCc1cc(O)c2c(c1)OC(C)(C)c1ccc(C)cc1-2", "note": "[CBN]", "values": [
      {"measurement": "reduction in pain relative to controls", "setting": "Sabra mice [1]", "result": "modest reduction"},
      {"measurement": "reduction in TNF signaling relative to controls", "setting": "[2]", "result": "modest reduction"},
      {"measurement": "reduction in inflammation relative to controls", "setting": "Sabra mice [3]", "result": "modest reduction"}
    ]},
    {"smiles": "C=C(C)[C@@H]1CCC(C)=C[C@H]1C1=C(O)C(=O)C(CCCCC)=CC1=O", "note": "[HU-331]", "values": [
      {"measurement": "reduction in pain relative to controls", "setting": "Sabra mice [1]", "result": "robust reduction"},
      {"measurement": "reduction in TNF signaling relative to controls", "setting": "[2]", "result": "robust reduction"},
      {"measurement": "reduction in inflammation relative to controls", "setting": "Sabra mice [3]", "result": "robust reduction"}
    ]},
    {"smiles": "CCCc1cc(O)c2c(c1)OC(C)(C)[C@@H]1CCC(C)=C[C@@H]21", "note": "[THCV]", "values": [
      {"measurement": "reduction in pain relative to controls", "setting": "Sabra mice [1]", "result": "modest reduction"},
      {"measurement": "reduction in TNF signaling relative to controls", "setting": "[2]", "result": "modest reduction"},
      {"measurement": "reduction in inflammation relative to controls", "setting": "Sabra mice [3]", "result": "modest reduction"}
    ]},
    {"smiles": "CCCCCc1cc(O)c2c(c1)OC(C)(C)[C@@H]1CCC(C)=C[C@@H]21", "note": "[THC]", "values": [
      {"measurement": "reduction in pain relative to controls", "setting": "Sabra mice [1]", "result": "modest reduction"},
      {"measurement": "reduction in TNF signaling relative to controls", "setting": "[2]", "result": "modest reduction"},
      {"measurement": "reduction in inflammation relative to controls", "setting": "Sabra mice [3]", "result": "modest reduction"}
    ]},
    {"smiles": "CCCCCCC(C)(C)c1cc(O)c2c(c1)OC(C)(C)C1CCC(=O)CC21", "note": "(stereo not drawn) [nabilone]", "values": [
      {"measurement": "reduction in pain relative to controls", "setting": "Sabra mice [1]", "result": "modest reduction"},
      {"measurement": "reduction in TNF signaling relative to controls", "setting": "[2]", "result": "modest reduction"},
      {"measurement": "reduction in inflammation relative to controls", "setting": "Sabra mice [3]", "result": "modest reduction"}
    ]},
    {"smiles": "CCCCCCc1cc(O)c2c(c1)OC(C)(C)C1=C2CC(C)CC1", "note": "(stereo not drawn) [parahexyl]", "values": [
      {"measurement": "reduction in pain relative to controls", "setting": "Sabra mice [1]", "result": "modest reduction"},
      {"measurement": "reduction in TNF signaling relative to controls", "setting": "[2]", "result": "modest reduction"},
      {"measurement": "reduction in inflammation relative to controls", "setting": "Sabra mice [3]", "result": "modest reduction"}
    ]},
    {"smiles": "CC1=C[C@H]2c3c(O)cc(CCc4ccccc4)cc3OC(C)(C)[C@H]2CC1", "note": "[perrottetinene]", "values": [
      {"measurement": "reduction in pain relative to controls", "setting": "Sabra mice [1]", "result": "modest reduction"},
      {"measurement": "reduction in TNF signaling relative to controls", "setting": "[2]", "result": "modest reduction"},
      {"measurement": "reduction in inflammation relative to controls", "setting": "Sabra mice [3]", "result": "modest reduction"}
    ]},
    {"smiles": "CCCCCCCc1cc(O)c2c(c1)OC(C)(C)[C@@H]1CCC(C)=C[C@@H]21", "note": "[tetrahydrocannabiphorol]", "values": [
      {"measurement": "reduction in pain relative to controls", "setting": "Sabra mice [1]", "result": "modest reduction"},
      {"measurement": "reduction in TNF signaling relative to controls", "setting": "[2]", "result": "modest reduction"},
      {"measurement": "reduction in inflammation relative to controls", "setting": "Sabra mice [3]", "result": "modest reduction"}
    ]},
    {"smiles": "CCCc1cc(O)c2c(c1)OC(C)(C)[C@@H]1CC=C(C)C[C@@H]21", "note": "[Δ8-THCV]", "values": [
      {"measurement": "reduction in pain relative to controls", "setting": "Sabra mice [1]", "result": "modest reduction"},
      {"measurement": "reduction in TNF signaling relative to controls", "setting": "[2]", "result": "modest reduction"},
      {"measurement": "reduction in inflammation relative to controls", "setting": "Sabra mice [3]", "result": "modest reduction"}
    ]},
    {"smiles": "CCCCCc1cc(O)c2c(c1)OC(C)(C)[C@@H]1CC=C(C)C[C@@H]21", "note": "[Δ8-THC]", "values": [
      {"measurement": "reduction in pain relative to controls", "setting": "Sabra mice [1]", "result": "modest reduction"},
      {"measurement": "reduction in TNF signaling relative to controls", "setting": "[2]", "result": "modest reduction"},
      {"measurement": "reduction in inflammation relative to controls", "setting": "Sabra mice [3]", "result": "modest reduction"}
    ]}
  ]
}
